Active and inactive are the calls of the source. The rule behind the calls is not given here.
Target: Influenza A virus M2 proton channel (A/TW/4845/1999 H1N1)
Assay: M2 proton channel binding, NMR based, influenza A virus H1N1 strain (AID 1549)
Settings: NMR binding screen, M2 protein

Row | SMILES | Kd
1 | CC(=O)Nc1cc(O)cc(O)c1 | > 4 mM (inactive)
2 | Cc1nnsc1C(=O)Nc1cccc(S(N)(=O)=O)c1 | > 4 mM (inactive)
3 | CC(CCC(=O)O)[C@H]1CCC2C3C[C@H](O)[C@@H]4C[C@H](O)CC[C@]4(C)C3CC[C@@]21C (some centres undefined) | > 4 mM (inactive)
4 | NCc1cccc2c1OCCO2 | > 4 mM (inactive)
5 | CSc1ccccc1NC(=O)c1cccnc1 | > 4 mM (inactive)
6 | Cc1cc(SCC(=O)Nc2nccs2)nc(=O)[nH]1 | > 4 mM (inactive)
7 | S=c1[nH]c2cccnc2[nH]1 | > 4 mM (inactive)
8 | O=C1C=CC(=O)N1c1ccccc1O | > 4 mM (inactive)
9 | O=C1CSC2(CN3CCC2CC3)N1 (centres undefined) | > 4 mM (inactive)
10 | CC[C@H](/C=C/C(C)C1CCC2C3CCC4=CC(=O)CC[C@]4(C)C3CC[C@]12C)C(C)C (some centres undefined) | > 4 mM (inactive)
11 | CC(C)(C)CC(=O)NNC(=O)c1cnccn1 | > 4 mM (inactive)
12 | NC(=O)CSc1ccc(Br)cc1 | > 4 mM (inactive)
13 | CN1CCn2c1nc(N1CCOCC1)nc2=O | > 4 mM (inactive)
14 | CN(C)c1n[nH]c(=O)[nH]c1=O | > 4 mM (inactive)
15 | C[C@@H]1CC[C@H]2[C@@H](C)C(=O)O[C@@H]3OC4(C)CC[C@@H]1[C@]32OO4 | > 4 mM (inactive)
16 | Cc1ccc(C(=O)n2cnnc2N)cc1C | > 4 mM (inactive)
17 | COc1cc(-c2coc3cc(O[C@@H]4O[C@H](CO)[C@@H](O)[C@H](O)[C@H]4O)c(OC)c(O)c3c2=O)cc(O)c1OC | > 4 mM (inactive)
18 | NC(=O)C1CCN(c2ccc(Cl)nn2)CC1 | > 4 mM (inactive)
19 | O=c1[nH]nnc2sc3c(c12)CCCC3 | > 4 mM (inactive)
20 | COc1ccc2c(c1OC)C(=O)OC2[C@H]1c2c(cc3c(c2OC)OCO3)CCN1C (some centres undefined) | > 4 mM (inactive)
21 | CCC1(CC)C(=O)NC(=O)N=C1N | > 4 mM (inactive)
22 | O=C(O)c1cc(O)c2c(c1)C(=O)c1cc(O)cc(O)c1C2=O | > 4 mM (inactive)
23 | O=C(/C=C/c1ccccc1)NC1CCS(=O)(=O)C1 (centres undefined) | > 4 mM (inactive)

Row | SMILES | Kd
24 | Nc1cc(=O)[nH]c(=O)n1-c1ccccc1 | > 4 mM (inactive)
25 | COC(=O)c1ccc2nccnc2c1 | > 4 mM (inactive)
26 | c1ccc(Cc2nnc(-c3ccccc3)o2)cc1 | > 4 mM (inactive)
27 | Cn1ncc(SCc2ccco2)c(Cl)c1=O | > 4 mM (inactive)
28 | CC(O)(C(=O)O)c1ccccc1 (centres undefined) | > 4 mM (inactive)
29 | CCOC(=O)C(C)c1n[nH]c(=O)c2ccccc12 (centres undefined) | > 4 mM (inactive)
30 | Cc1nnsc1C(=O)Nc1ccccc1[N+](=O)[O-] | > 4 mM (inactive)
31 | C[C@@H]1CC[C@]2(C(=O)O)CC[C@]3(C)C(=CCC4[C@@]5(C)CC[C@H](O)C(C)(C)C5CC[C@]43C)C2[C@H]1C (some centres undefined) | > 4 mM (inactive)
32 | Cc1nn(C)c2sc(CO)cc12 | > 4 mM (inactive)
33 | Cc1nc(-c2cnccn2)sc1C(=O)O | > 4 mM (inactive)
34 | CCN(CC)S(=O)(=O)c1cccc2nsnc12 | > 4 mM (inactive)
35 | CN1CCC(N2CCOCC2)CC1 | > 4 mM (inactive)
36 | Nc1nc(-c2nc3ccccc3[nH]2)cs1 | > 4 mM (inactive)
37 | CC(=O)CNc1cc(CNC(C)=O)c(C)cc1C | > 4 mM (inactive)
38 | Cc1nn2c(nc1=O)SCC2(O)c1ccccc1 (centres undefined) | > 4 mM (inactive)
39 | O=C1CCCC(=O)N1c1ccc(O)cc1 | > 4 mM (inactive)
40 | Cc1n[nH]c(C)c1CN | > 4 mM (inactive)
41 | COc1cc2cc[n+]3cc4c(OC)c(OC)ccc4cc3c2cc1OC | > 4 mM (inactive)
42 | CC(C)(C)c1ccc(SCC(N)=O)cc1 | > 4 mM (inactive)
43 | Cc1nnc(SCC(=O)Nc2ccccc2)[nH]c1=O | > 4 mM (inactive)
44 | Oc1ccc2c(c1)OCO2 | > 4 mM (inactive)
45 | N#CCc1nc2ccccc2s1 | > 4 mM (inactive)
46 | C[C@@H]1CC[C@@]23CCC4(C)[C@@](C=CC5[C@@]6(C)CCC(=O)C(C)(C)C6CC[C@]54C)(OC2=O)C3[C@H]1C (some centres undefined) | > 4 mM (inactive)

Row | SMILES | Kd
47 | Cc1ccc(C)c(S(=O)(=O)NCc2cccnc2)c1 | > 4 mM (inactive)
48 | CC1(C)NCCN2C(=O)CSC21 (centres undefined) | > 4 mM (inactive)
49 | CS(=O)(=O)NC1CCN(Cc2ccccc2)CC1 | > 4 mM (inactive)
50 | CC(=O)Nc1cnn(Cc2ccc(Br)cc2)c1 | > 4 mM (inactive)
51 | C[C@@H]1CC[C@@]2(NC1)O[C@H]1C[C@H]3C4CC=C5C[C@@H](O)CC[C@]5(C)C4CC[C@]3(C)C1[C@@H]2C (some centres undefined) | > 4 mM (inactive)
52 | Cc1ccc(Nc2nnns2)cc1C | > 4 mM (inactive)
53 | C=C1C2CC[C@@]3(C)[C@H](c4ccoc4)OC(=O)C[C@]13O[C@H]1C[C@H](OC(C)=O)C(C)(C)[C@H](CC(=O)OC)[C@@]21C | > 4 mM (inactive)
54 | NC(=O)c1ccc(Cl)c(N2C(=O)CCC2=O)c1 | > 4 mM (inactive)
55 | CC1CCN(S(=O)(=O)N(C)C)CC1 | > 4 mM (inactive)
56 | Cc1onc(-c2c(F)cccc2Cl)c1C(N)=O | > 4 mM (inactive)
57 | O=C1C2CC=C(Cl)CC2C(=O)N1c1ccccc1O (centres undefined) | > 4 mM (inactive)
58 | CC(C)CCCC(C)C1CCC2C3=CC[C@H]4C[C@@H](O)CC[C@]4(C)C3CC[C@@]21C (some centres undefined) | > 4 mM (inactive)
59 | CCOc1ccccc1C(=O)NC1=NCCS1 | > 4 mM (inactive)
60 | N#CCCn1c(=O)oc2ccccc21 | > 4 mM (inactive)
61 | Cc1cc(=O)oc2c1c(C)nn2CN1CCN(C)CC1 | > 4 mM (inactive)
62 | COc1ccc(-c2nnc(-c3ccc(N)cc3)o2)cc1 | > 4 mM (inactive)
63 | Nc1scc[n+]1CC(=O)[O-] | > 4 mM (inactive)
64 | COc1ccccc1-c1cn[nH]c(=S)n1 | > 4 mM (inactive)
65 | Cc1cc(NC(=O)c2ccc3c(c2)OCO3)no1 | > 4 mM (inactive)
66 | CC(=O)Nc1ccc(NC(C)=O)cc1 | > 4 mM (inactive)
67 | O=C(CCc1n[nH]c(=O)[nH]c1=O)NCc1ccccc1 | > 4 mM (inactive)
68 | CCCn1c(C)cc(=O)[nH]c1=O | > 4 mM (inactive)
69 | O=C(C1CCCCC1)N1CCN(c2ccccc2F)CC1 | > 4 mM (inactive)

Row | SMILES | Kd
70 | CC(=O)NC(=S)Nc1ccccc1C | > 4 mM (inactive)
71 | O=C1CCC(=O)N1c1cccnc1 | > 4 mM (inactive)
72 | CN1CCC(NC(=S)NC2CC2)CC1 | > 4 mM (inactive)
73 | OC1CCCN(Cc2ccccc2)C1 (centres undefined) | > 4 mM (inactive)
74 | O=C(O)c1cc(O)c2c(c1)[C@@H]([C@H]1c3cc(C(=O)O)cc(O)c3C(=O)c3c(O[C@H]4O[C@H](CO)[C@@H](O)[C@H](O)[C@H]4O)cccc31)c1cccc(O[C@H]3O[C@H](CO)[C@@H](O)[C@H](O)[C@H]3O)c1C2=O | > 4 mM (inactive)
75 | CCn1cnc2cc(NCc3ccncc3)ccc21 | > 4 mM (inactive)
76 | COc1cc2occc2c2oc(=O)ccc12 | > 4 mM (inactive)
77 | Cc1cc(C(=O)Nc2sc3c(c2C#N)CCC3)no1 | > 4 mM (inactive)
78 | CCC[C@H]1CC2=C(C[C@@H](CC)CC3=C1C(=O)OC3=O)C(=O)OC2=O | > 4 mM (inactive)
79 | Cc1cc(C)n(-c2nc(C)nc(N)n2)n1 | > 4 mM (inactive)
80 | Nc1nc(N)nc(N2C(=O)c3ccccc3C2=O)n1 | > 4 mM (inactive)
81 | O=C1NC(=O)C(=Cc2ccccc2)C(=O)N1 | > 4 mM (inactive)
82 | COC(=O)C[C@@H]1C2(C)C(=O)[C@@H](CC3=C4C=C(OC)O[C@@H](c5ccoc5)[C@]4(C)CCC32)[C@H](O)C1(C)C (some centres undefined) | > 4 mM (inactive)
83 | O=C1c2ccccc2C(=O)N1/N=C/c1ccc[nH]1 | > 4 mM (inactive)
84 | CS(=O)(=O)c1ccc(N)cc1 | > 4 mM (inactive)
85 | COC(=O)Nc1c(C)n(C)n(-c2ccccc2)c1=O | > 4 mM (inactive)
86 | CN1CCN(c2ccc(N)cc2)CC1 | > 4 mM (inactive)
87 | O=c1cccc2n1C[C@H]1CNCC2C1 | > 4 mM (inactive)
88 | O=C(NCO)c1ccccc1Cl | > 4 mM (inactive)
89 | CCC1=Nc2ccccc2-c2nnc(SC)nc2O1 | > 4 mM (inactive)
90 | CC(=O)O[C@H]1C[C@@H](OC(C)=O)C(C)(C)C2C[C@@H](OC(C)=O)[C@]3(C)C([C@H](OC(C)=O)C[C@@]4(C)[C@H](c5ccoc5)OC(=O)[C@H]5O[C@]543)[C@]21C (some centres undefined) | > 4 mM (inactive)
91 | NC(=O)c1ccccc1NC(=O)C1CC1 | > 4 mM (inactive)
92 | C=CCc1ccc(OC(=O)c2ccccc2)c(OC)c1 | > 4 mM (inactive)

Row | SMILES | Kd
93 | Cc1n[nH]c(=S)n1-c1ccc(C(=O)O)cc1 | > 4 mM (inactive)
94 | O=C(O)c1ccc(-c2cccs2)s1 | > 4 mM (inactive)
95 | O=C(NC1=NCCS1)c1cccc(F)c1 | > 4 mM (inactive)
96 | Cc1oc(-c2ccccc2)cc1CO | > 4 mM (inactive)
97 | COc1cc2c(cc1OC)[C@@H]1C(=O)c3ccc(O)c(CC=C(C)C)c3O[C@@H]1CO2 | > 4 mM (inactive)
98 | CS(=O)(=O)c1nncn1-c1ccccc1 | > 4 mM (inactive)
99 | COC(=O)c1ccccc1N(C)S(C)(=O)=O | > 4 mM (inactive)
100 | O=c1[nH]cnc2c1nnn2Cc1ccccc1 | > 4 mM (inactive)
101 | O=c1[nH]cc(NC(=S)N2CCOCC2)c(=O)[nH]1 | > 4 mM (inactive)
102 | COCC(=O)Nc1c(C(N)=O)oc2ccccc12 | > 4 mM (inactive)
103 | CN1CCC(NC(=O)c2cccnc2)CC1 | > 4 mM (inactive)
104 | COc1ccc2c(c1OC)C(=O)N(c1ncn[nH]1)C2 | > 4 mM (inactive)
105 | COc1cc(N)ncn1 | > 4 mM (inactive)
106 | CC(=O)O[C@@H]1CC2C(C)(C)C(=O)C=C[C@]2(C)C2CC[C@]3(C)C(=CC(=O)O[C@H]3c3ccoc3)[C@@]21C (some centres undefined) | > 4 mM (inactive)
107 | CC(=O)NCC1OCCc2ccccc21 (centres undefined) | > 4 mM (inactive)
108 | Cc1cc(C)c(C(N)=O)c(=S)[nH]1 | > 4 mM (inactive)
109 | O=C1CC(=O)N(c2ccccc2F)C(=S)N1 | > 4 mM (inactive)
110 | O=C(O)CCC(=O)Nc1ccccc1F | > 4 mM (inactive)
111 | O=C(O)CCCCCCCC(=O)O | > 4 mM (inactive)
112 | CCOC(=O)c1c(-c2ccncc2)csc1N | > 4 mM (inactive)
113 | Cc1cc(N(CN2CCCC2=O)C(=O)c2ccccc2)no1 | > 4 mM (inactive)
114 | N#Cc1cn(CC(=O)N2CCCC2)c2ccccc12 | > 4 mM (inactive)

From PubChem BioAssay AID1549 (Sanford-Burnham Center for Chemical Genomics, 2009)
